Laboratory results taken from patent US20250326744A1, “PIPERAZINE DERIVATIVE OR SALT THEREOF, AND PHARMACEUTICAL COMPOSITION” (priority 2022, published 2025).
Where a name gives a salt, the structure may show the parent alone.

What was measured:
mexB (PA) strain = assay: Combinational effect with antibacterial agent against Pseudomonas aeruginosa (Test Examples 2 and 4): mexB (PA) strain with LVFX, TC or AZT at 1/4 MIC, EC99; type: cell-based; settings: Table 52, Test Example 2, 16 to 20 hours culture, OD595; for EC99, mexB (PA), AZT: combined with AZT at 1/4 MIC; for EC99, mexB (PA), LVFX: combined with LVFX at 1/4 MIC; for EC99, mexB (PA), TC: combined with TC at 1/4 MIC
Protocol: (§1) The combinational effect of the test compound with the antibacterial agent against Pseudomonas aeruginosa was evaluated.
For the evaluation of the inhibitory ability against MexAB-OprM, a mutant strain of Pseudomonas aeruginosa in which MexAB-OprM was expressed as a main drug efflux pump (hereinafter, referred to as a “mexB (PA) strain”) was used. LVFX, TC, or AZT was used as the antibacterial agent used in combination.
The mexB (PA) strain is a strain produced by deleting the genes of MexCD-OprJ, MexEF-OprN, and MexXY in the drug efflux pump of Pseudomonas aeruginosa described in FEMS Microbiology Letters, 2001, Vol. 202, pp. 139 to 143. In the mexB (PA) strain, an expression level of MexB as a drug efflux pump is accelerated.
TC is a tetracycline-based antibacterial agent and is a drug that is discharged outside the bacteria by MexB. AZT is a monobactam-based antibacterial agent and is a drug that is discharged outside the bacteria by MexB.
(§2) AMK and GM are aminoglycoside-based antibacterial agents, and are drugs that are not discharged outside the bacteria by MexB but are discharged outside the bacteria by MexY For the culture of each Pseudomonas aeruginosa strain, a 96-well plate (amount of culture medium per well: 100 μL) was used, and cation-adjusted Mueller Hinton broth (CAMHB) was used. The inoculation amount of the bacteria was set to 10^4 to 5 CFU/well.
(§3) The mexB (PA) strain and the S-3769 strain were cultured for 16 to 20 hours in a culture medium to which each antibacterial agent and test compounds at various concentrations (0 to 800 μM) were added, and the proliferation of the bacterial strains was evaluated by optical turbidity at 595 nm (OD595). The concentration of the antibacterial agent in the culture medium was set to ¼ MIC.
(§4) The proliferation of bacteria in a case where the test compound and the antibacterial agent were not added was measured, and compared with the proliferation of bacteria in a case where the test compound in a case where the antibacterial agent was added at the concentration of ¼ MIC was contained, and the lowest concentration of the test compound at which the proliferation was inhibited by 99% or more was defined as the drug efflux pump inhibitory ability of the test compound as 99% inhibitory effect concentration (EC99).
(§5) The effect of suppressing the proliferation of each test compound in combination with an antibacterial agent at ¼ MIC for mexB (PA) or the S-3769 strain was evaluated as follows according to the value of EC99. • S: EC99≤12.5 μM • A: 12.5 μM<EC99≤25 μM • B: 25 μM<EC99≤100 μM • C: 100 μM<EC99
(§6) The combinational effect of the test compound with the antibacterial agent against Pseudomonas aeruginosa was evaluated in the same manner as in Test Example 2.

S-3769 strain = assay: Combinational effect with antibacterial agent against Pseudomonas aeruginosa (Test Examples 2 and 4): S-3769 strain with AMK or GM at 1/4 MIC, EC99; type: cell-based; settings: Table 52, Test Example 2, 16 to 20 hours culture, OD595; for EC99, S-3769 strain, AMK: combined with AMK at 1/4 MIC; for EC99, S-3769 strain, GM: combined with GM at 1/4 MIC
Protocol: as §1
The […] was used for evaluating the inhibitory ability against MexXY-OprM. AMK or GM was used as the antibacterial agent used in combination.
The S-3769 strain is a clinically isolated strain collected from a domestic medical institution, and is a strain in which the expression level of MexY is accelerated.
as §2, §3, §4, §5, §6

## N[C@@H](C(=O)N1CCN(Cc2cccc3c2OC(F)(F)O3)CC1)C1CCN(CCc2cc(Cl)ccc2-c2ccccc2)CC1 [Example 24, Hydrobromide of (R)-2-amino-2-(1-(2-(4-chloro-[1,1′-biphenyl]-2-yl)ethyl)piperidin-4-yl)-1-(4-((2,2-difluorobenzo[d][1,3]dioxol-4-yl)methyl)piperazin-1-yl)ethan-1-one]
mexB (PA) strain
  EC99, mexB (PA), AZT: B (25 μM<EC99≤100 μM)
  EC99, mexB (PA), LVFX: B (25 μM<EC99≤100 μM)
  EC99, mexB (PA), TC: A (12.5 μM<EC99≤25 μM)
S-3769 strain
  EC99, S-3769 strain, AMK: B (25 μM<EC99≤100 μM)
  EC99, S-3769 strain, GM: B (25 μM<EC99≤100 μM)

## CCSc1cccc(F)c1CN1CCN(C(=O)[C@H](N)C2CCN(CCc3cc(Cl)ccc3-c3ccccc3)CC2)CC1 [Example 27, (R)-2-amino-2-(1-(2-(4-chloro-[1,1′-biphenyl]-2-yl)ethyl)piperidin-4-yl)-1-(4-(2-(ethylthio)-6-fluorobenzyl)piperazin-1-yl)ethan-1-one]
mexB (PA) strain
  EC99, mexB (PA), AZT: A (12.5 μM<EC99≤25 μM)
  EC99, mexB (PA), LVFX: A (12.5 μM<EC99≤25 μM)
  EC99, mexB (PA), TC: S (EC99≤12.5 μM)
S-3769 strain
  EC99, S-3769 strain, AMK: S (EC99≤12.5 μM)
  EC99, S-3769 strain, GM: S (EC99≤12.5 μM)

## CCSc1cc(F)ccc1CN1CCN(C(=O)[C@H](N)C2CCN(CCc3cc(Cl)ccc3-c3ccccc3)CC2)CC1 [Example 30, (R)-2-amino-2-(1-(2-(4-chloro-[1,1′-biphenyl]-2-yl)ethyl)piperidin-4-yl)-1-(4-(2-(ethylthio)-4-fluorobenzyl)piperazin-1-yl)ethan-1-one]
mexB (PA) strain
  EC99, mexB (PA), AZT: S (EC99≤12.5 μM)
  EC99, mexB (PA), LVFX: S (EC99≤12.5 μM)
  EC99, mexB (PA), TC: S (EC99≤12.5 μM)
S-3769 strain
  EC99, S-3769 strain, AMK: S (EC99≤12.5 μM)
  EC99, S-3769 strain, GM: S (EC99≤12.5 μM)

## CCOc1ccc(F)c(F)c1CN1CCN(C(=O)[C@H](N)C2CCN(CCc3cc(Cl)ccc3-c3ccccc3)CC2)CC1 [Example 35, Hydrobromide of (R)-2-amino-2-(1-(2-(4-chloro-[1,1′-biphenyl]-2-yl)ethyl)piperidin-4-yl)-1-(4-(6-ethoxy-2,3-difluorobenzyl)piperazin-1-yl)ethan-1-one]
mexB (PA) strain
  EC99, mexB (PA), AZT: B (25 μM<EC99≤100 μM)
  EC99, mexB (PA), LVFX: C (100 μM<EC99)
  EC99, mexB (PA), TC: B (25 μM<EC99≤100 μM)
S-3769 strain
  EC99, S-3769 strain, AMK: S (EC99≤12.5 μM)
  EC99, S-3769 strain, GM: S (EC99≤12.5 μM)

## N[C@@H](C(=O)N1CCN(Cc2cccc3c2OCO3)CC1)C1CCN(CCc2cc(Cl)ccc2-c2ccccc2)CC1 [Example 36, Hydrobromide of (R)-2-amino-1-(4-(benzo[d][1,3]dioxol-4-ylmethyl)piperazin-1-yl)-2-(1-(2-(4-chloro-[1,1′-biphenyl]-2-yl)ethyl)piperidin-4-yl) ethan-1-one]
mexB (PA) strain
  EC99, mexB (PA), AZT: B (25 μM<EC99≤100 μM)
  EC99, mexB (PA), LVFX: C (100 μM<EC99)
  EC99, mexB (PA), TC: B (25 μM<EC99≤100 μM)
S-3769 strain
  EC99, S-3769 strain, AMK: B (25 μM<EC99≤100 μM)
  EC99, S-3769 strain, GM: B (25 μM<EC99≤100 μM)

## N[C@@H](C(=O)N1CCN(Cc2cccc3c2OCCO3)CC1)C1CCN(CCc2cc(Cl)ccc2-c2ccccc2)CC1 [Example 37, Hydrobromide of (R)-2-amino-2-(1-(2-(4-chloro-[1,1′-biphenyl]-2-yl)ethyl)piperidin-4-yl)-1-(4-((2,3-dihydrobenzo[b] [1,4]dioxin-5-yl)methyl)piperazin-1-yl) ethan-1-one]
mexB (PA) strain
  EC99, mexB (PA), AZT: B (25 μM<EC99≤100 μM)
  EC99, mexB (PA), LVFX: C (100 μM<EC99)
  EC99, mexB (PA), TC: B (25 μM<EC99≤100 μM)
S-3769 strain
  EC99, S-3769 strain, AMK: B (25 μM<EC99≤100 μM)
  EC99, S-3769 strain, GM: B (25 μM<EC99≤100 μM)

## N[C@@H](C(=O)N1CCN(Cc2cccc3c2OCC3)CC1)C1CCN(CCc2cc(Cl)ccc2-c2ccccc2)CC1 [Example 38, Hydrobromide of (R)-2-amino-2-(1-(2-(4-chloro-[1,1′-biphenyl]-2-yl)ethyl)piperidin-4-yl)-1-(4-((2,3-dihydrobenzofuran-7-yl)methyl)piperazin-1-yl)ethan-1-one]
mexB (PA) strain
  EC99, mexB (PA), AZT: A (12.5 μM<EC99≤25 μM)
  EC99, mexB (PA), LVFX: C (100 μM<EC99)
  EC99, mexB (PA), TC: B (25 μM<EC99≤100 μM)
S-3769 strain
  EC99, S-3769 strain, AMK: A (12.5 μM<EC99≤25 μM)
  EC99, S-3769 strain, GM: A (12.5 μM<EC99≤25 μM)

## N[C@@H](C(=O)N1CCN(Cc2cccc3ccoc23)CC1)C1CCN(CCc2cc(Cl)ccc2-c2ccccc2)CC1 [Example 39, Hydrobromide of (R)-2-amino-1-(4-(benzofuran-7-ylmethyl)piperazin-1-yl)-2-(1-(2-(4-chloro-[1,1′-biphenyl]-2-yl)ethyl)piperidin-4-yl)ethan-1-one]
mexB (PA) strain
  EC99, mexB (PA), AZT: A (12.5 μM<EC99≤25 μM)
  EC99, mexB (PA), LVFX: B (25 μM<EC99≤100 μM)
  EC99, mexB (PA), TC: A (12.5 μM<EC99≤25 μM)
S-3769 strain
  EC99, S-3769 strain, AMK: A (12.5 μM<EC99≤25 μM)
  EC99, S-3769 strain, GM: B (25 μM<EC99≤100 μM)

## CCOc1cccc(F)c1CN1CCN(C(=O)[C@H](N)C2CCN(CCc3cccc4ccccc34)CC2)CC1 [Example 42]
mexB (PA) strain
  EC99, mexB (PA), AZT: B (25 μM<EC99≤100 μM)
  EC99, mexB (PA), LVFX: B (25 μM<EC99≤100 μM)
  EC99, mexB (PA), TC: B (25 μM<EC99≤100 μM)
S-3769 strain
  EC99, S-3769 strain, AMK: S (EC99≤12.5 μM)
  EC99, S-3769 strain, GM: S (EC99≤12.5 μM)

## CCOc1cccc(F)c1CN1CCN(C(=O)[C@H](N)C2CCN(CCc3cc(Cl)ccc3-c3ccccc3Cl)CC2)CC1 [Example 44, (R)-2-amino-2-(1-(2-(2′,4-dichloro-[1,1′-biphenyl]-2-yl)ethyl)piperidin-4-yl)-1-(4-(2-ethoxy-6-fluorobenzyl)piperazin-1-yl)ethan-1-one]
mexB (PA) strain
  EC99, mexB (PA), AZT: S (EC99≤12.5 μM)
  EC99, mexB (PA), LVFX: A (12.5 μM<EC99≤25 μM)
  EC99, mexB (PA), TC: S (EC99≤12.5 μM)
S-3769 strain
  EC99, S-3769 strain, AMK: S (EC99≤12.5 μM)
  EC99, S-3769 strain, GM: S (EC99≤12.5 μM)

## CCOc1cccc(F)c1CN1CCN(C(=O)[C@H](N)C2CCN(CCc3ccccc3-c3cc(F)cc(F)c3)CC2)CC1 [Example 48, Hydrobromide of (R)-2-amino-2-(1-(2-(3′,5′-difluoro-[1,1′-biphenyl]-2-yl)ethyl)piperidin-4-yl)-1-(4-(2-ethoxy-6-fluorobenzyl)piperazin-1-yl)ethan-1-one]
mexB (PA) strain
  EC99, mexB (PA), AZT: B (25 μM<EC99≤100 μM)
  EC99, mexB (PA), LVFX: C (100 μM<EC99)
  EC99, mexB (PA), TC: B (25 μM<EC99≤100 μM)
S-3769 strain
  EC99, S-3769 strain, AMK: B (25 μM<EC99≤100 μM)
  EC99, S-3769 strain, GM: A (12.5 μM<EC99≤25 μM)

## CCOc1cccc(F)c1CN1CCN(C(=O)[C@H](N)C2CCN(CCc3cc(F)ccc3-c3ccccc3)CC2)CC1 [Example 50, Hydrobromide of (R)-2-amino-1-(4-(2-ethoxy-6-fluorobenzyl)piperazin-1-yl)-2-(1-(2-(4-fluoro-[1,1′-biphenyl]-2-yl)ethyl)piperidin-4-yl)ethan-1-one]
mexB (PA) strain
  EC99, mexB (PA), AZT: B (25 μM<EC99≤100 μM)
  EC99, mexB (PA), LVFX: C (100 μM<EC99)
  EC99, mexB (PA), TC: B (25 μM<EC99≤100 μM)
S-3769 strain
  EC99, S-3769 strain, AMK: B (25 μM<EC99≤100 μM)
  EC99, S-3769 strain, GM: A (12.5 μM<EC99≤25 μM)

## CCOc1cccc(F)c1CN1CCN(C(=O)[C@H](N)C2CCN(CCc3cc(OC)ccc3-c3ccccc3)CC2)CC1 [Example 51, Hydrobromide of (R)-2-amino-1-(4-(2-ethoxy-6-fluorobenzyl)piperazin-1-yl)-2-(1-(2-(4-methoxy-[1,1′-biphenyl]-2-yl)ethyl)piperidin-4-yl)ethan-1-one]
mexB (PA) strain
  EC99, mexB (PA), AZT: B (25 μM<EC99≤100 μM)
  EC99, mexB (PA), LVFX: B (25 μM<EC99≤100 μM)
  EC99, mexB (PA), TC: B (25 μM<EC99≤100 μM)
S-3769 strain
  EC99, S-3769 strain, AMK: A (12.5 μM<EC99≤25 μM)
  EC99, S-3769 strain, GM: S (EC99≤12.5 μM)
